Here are results for 38 compounds from US8546383B2, “Chiral fused [1,2]imidazo[4,5-c] ring compounds” (3M Innovative Properties Company, priority 2004, dated 2013).

Structures are written as SMILES.

As a reminder, the melting point is the temperature of the solid-liquid transition. Compound `CC(C)(F)[C@H]1COCc2nc3c(N)nc4c(c3n21)CCCC4` [Example 12, (11R)-11-(1-Fluoro-1-methylethyl)-2,3,4,8,10,11-hexahydro-1H-[1,4]oxazino[4′,3′:1,2]imidazo[4,5-c]quinolin-6-amine] returned a melting point of 195.5 to 197 °C.
As for `CC(C)(O)[C@H]1COCc2nc3c(N)nc4ccccc4c3n21` [Example 13, 2-[(11R)-6-Amino-10,11-dihydro-8H-[1,4]oxazino[4′,3′:1,2]imidazo[4,5-c]quinolin-11-yl]propan-2-ol], the figure is 216 to 217 °C.
As for `CC(C)[C@H]1COCc2nc3c(N)nc4cccnc4c3n21` [Example 14, (11S)-11-Isopropyl-10,11-dihydro-8H-[1,4]oxazino[4′,3′:1,2]imidazo[4,5-c][1,5]naphthyridin-6-amine], the figure is 194 to 196 °C; as for `C[C@H]1COCc2nc3c(N)nc4cccnc4c3n21` [Example 15, (11S)-11-Methyl-10,11-dihydro-8H-[1,4]oxazino[4′,3′:1,2]imidazo[4,5-c][1,5]naphthyridin-6-amine], 240 to 242 °C; as for `CC(C)(F)[C@H]1COCc2nc3c(N)nc4cccnc4c3n21` [Example 16, (11R)-11-(1-Fluoro-1-methylethyl)-10,11-dihydro-8H-[1,4]oxazino[4′,3′:1,2]imidazo[4,5-c][1,5]naphthyridin-6-amine], 192 to 194 °C.
As for `CC(C)(F)[C@H]1COCc2nc3c(N)nc4cc(O)ccc4c3n21` [Example 17, (11R)-6-Amino-11-(1-fluoro-1-methylethyl)-10,11-dihydro-8H-[1,4]oxazino[4′,3′:1,2]imidazo[4,5-c]quinolin-3-ol], the figure is 219 to 221 °C; as for `CC(C)[C@H]1COCc2nc3c(N)nc4ccc(OCc5ccccc5)cc4c3n21` [Example 19, (11S)-2-(Benzyloxy)-11-isopropyl-10,11-dihydro-8H-[1,4]oxazino[4′,3′:1,2]imidazo[4,5-c]quinolin-6-amine], 139 to 141 °C; as for `CC(C)[C@H]1COCc2nc3c(N)nc4ccc(O)cc4c3n21` [Example 20, (11S)-6-Amino-11-isopropyl-10,11-dihydro-8H-[1,4]oxazino[4′,3′:1,2]imidazo[4,5-c]quinolin-2-ol], 208 to 210 °C.
Regarding `C[C@H]1COCc2nc3c(N)nc4ccc(O)cc4c3n21` [Example 21, (11S)-6-Amino-11-methyl-10,11-dihydro-8H-[1,4]oxazino[4′,3′:1,2]imidazo[4,5-c]quinolin-2-ol], the melting point lay within 262 to 264 °C.
Compound `CC1CCOCc2nc3c(N)nc4cc(Br)ccc4c3n21` (centres unmarked) [Example 22, 3-Bromo-12-methyl-11,12-dihydro-8H,10H-[1,4]oxazepino[4′,3′:1,2]imidazo[4,5-c]quinolin-6-amine] showed a melting point of 247 to 248 °C.
As for `C[C@H]1CN(S(C)(=O)=O)Cc2nc3c(N)nc4ccccc4c3n21` [Example 23, (11S)-11-Methyl-9-(methylsulfonyl)-8,9,10,11-tetrahydropyrazino[1′,2′:1,2]imidazo[4,5-c]quinolin-6-amine], the figure is 258 to 261 °C; as for `CC(C)[C@@H]1COCc2nc3c(N)nc4ccccc4c3n21` [Example 25], 248 to 249 °C; as for `C[C@@H]1COCc2nc3c(N)nc4ccccc4c3n21` [Example 26], 280 to 282 °C.
As for `C[C@@H]1COCc2nc3c(N)nc4c(c3n21)CCCC4` [Example 27], the figure is 209 to 211 °C; as for `Nc1nc2ccccc2c2c1nc1n2[C@H](c2ccccc2)COC1` [Example 28], 284 to 286 °C; as for `CC(C)(F)[C@@H]1COCc2nc3c(N)nc4ccccc4c3n21` [Example 30], 242 to 244 °C.
Regarding `C[C@@H]1CN(S(C)(=O)=O)Cc2nc3c(N)nc4ccccc4c3n21` [Example 32, (11R)-11-Methyl-9-(methylsulfonyl)-8,9,10,11-tetrahydropyrazino[1′,2′:1,2]imidazo[4,5-c]quinolin-6-amine], the melting point lay within 258 to 261 °C.
As for `CC(C)(O)[C@H]1COCc2nc3c(N)nc4cccnc4c3n21` [Example 33, 2-[(11R)-6-Amino-10,11-dihydro-8H-[1,4]oxazino[4′,3′:1,2]imidazo[4,5-c]-1,5-naphthyridin-11-yl]propan-2-ol], the figure is 242 to 246 °C; as for `Nc1nc2ccccc2c2c1nc1n2[C@@H](COCc2ccccc2)COC1` [Example 34, (11S)-11-[(Benzyloxy)methyl]-10,11-dihydro-8H-[1,4]oxazino[4′,3′:1,2]imidazo[4,5-c]quinolin-6-amine], 184.6 to 186.2 °C.
As for `Nc1nc2ccccc2c2c1nc1n2[C@@H](CO)COC1` [Example 35, [(11S)-6-Amino-10,11-dihydro-8H-[1,4]oxazino[4′,3′:1,2]imidazo[4,5-c]quinolin-11-yl]methanol], the figure is 238.6 to 239.8 °C; as for `Nc1nc2ccccc2c2c1nc1n2[C@@H](CCl)COC1` [Example 36, (11R)-11-(Chloromethyl)-10,11-dihydro-8H-[1,4]oxazino[4′,3′:1,2]imidazo[4,5-c]quinolin-6-amine], 230 to 232 °C; as for `CN1CCN(C[C@H]2COCc3nc4c(N)nc5ccccc5c4n32)CC1` [Example 37, (11S)-11-[(4-Methylpiperazin-1-yl)methyl]-10,11-dihydro-8H-[1,4]oxazino[4′,3′:1,2]imidazo[4,5-c]quinolin-6-amine], 187 to 190 °C.
Consider `C[C@@H](OCc1ccccc1)[C@H]1COCc2nc3c(N)nc4ccccc4c3n21` [Example 38, (11R)-11-[(1R)-1-(benzyloxy)ethyl]-10,11-dihydro-8H-[1,4]oxazino[4′,3′:1,2]imidazo[4,5-c]quinolin-6-amine], for which the melting point lay within 189 to 190.8 °C.
As for `C[C@@H](O)[C@H]1COCc2nc3c(N)nc4ccccc4c3n21` [Example 39, (1R)-1-[(11R)-6-Amino-10,11-dihydro-8H-[1,4]oxazino[4′,3′:1,2]imidazo[4,5-c]quinolin-11-yl]ethanol], the melting point is 215.3 to 218.6 °C.
As for `C[C@H](OCc1ccccc1)[C@H]1COCc2nc3c(N)nc4ccccc4c3n21` [Example 40, (11R)-11-[(1S)-1-(benzyloxy)ethyl]-10,11-dihydro-8H-[1,4]oxazino[4′,3′:1,2]imidazo[4,5-c]quinolin-6-amine], the figure is 86.6 to 89.7 °C; as for `C[C@H](O)[C@H]1COCc2nc3c(N)nc4ccccc4c3n21` [Example 41, (1S)-1-[(11R)-6-amino-10,11-dihydro-8H-[1,4]oxazino[4′,3′:1,2]imidazo[4,5-c]quinolin-1′-yl]ethanol], 207.6 to 208.7 °C.
As for `c1ccc2c(c1)ncc1nc3n(c12)[C@@H](C1CCOCC1)COC3` [Example 42, (11S)-11-Tetrahydro-2H-pyran-4-yl-10,11-dihydro-8H-[1,4]oxazino[4′,3′:1,2]imidazo[4,5-c]quinoline], the figure is 234 to 237 °C.
As for `Nc1nc2ccccc2c2c1nc1n2[C@@H](C2CCOCC2)COC1` [Example 43, (11S)-11-Tetrahydro-2H-pyran-4-yl-10,11-dihydro-8H-[1,4]oxazino[4′,3′:1,2]imidazo[4,5-c]quinolin-6-amine], the figure is 240.4 to 243.4 °C; as for `Cc1nc(N)c2nc3n(c2c1C)[C@@H](C)COC3` [Example 44, (4S)-4,6,7-Trimethyl-3,4-dihydro-1H-pyrido[3′,4′:4,5]imidazo[2,1-c][1,4]oxazin-9-amine], 264 to 267 °C.
In the case of `Nc1nc2ccccc2c2c1nc1n2[C@@H](COCc2ccc(F)cc2)COC1` [Example 45, (11S)-11-{[(4-Fluorobenzyl)oxy]methyl}-10,11-dihydro-8H-[1,4]oxazino[4′,3′:1,2]imidazo[4,5-c]quinolin-6-amine], the melting point lay within 134 to 137 °C.
In turn, `Nc1nc2ccccc2c2c1nc1n2[C@@H](Cc2ccc(F)cc2)COC1` [Example 46, (11S)-11-(4-Fluorobenzyl)-10,11-dihydro-8H-[1,4]oxazino[4′,3′:1,2]imidazo[4,5-c]quinolin-6-amine] registered a melting point of 170 to 172 °C.
As for `Nc1nc2ccccc2c2c1nc1n2[C@@H](C2CCCCC2)COC1` [Example 47, (11S)-11-Cyclohexyl-10,11-dihydro-8H-[1,4]oxazino[4′,3′:1,2]imidazo[4,5-c]quinolin-6-amine], the figure is 228 to 230 °C; as for `COc1ccc(C[C@H]2COCc3nc4c(N)nc5ccccc5c4n32)cc1` [Example 49, (11S)-11-(4-Methoxybenzyl)-10,11-dihydro-8H-[1,4]oxazino[4′,3′:1,2]imidazo[4,5-c]quinolin-6-amine], 115 to 130 °C.
As for `Nc1nc2ccccc2c2c1nc1n2[C@@H](c2cc(-c3ccc(F)cc3)no2)COC1` [Example 50, (11R)-11-[3-(4-Fluorophenyl)isoxazol-5-yl]-10,11-dihydro-8H-[1,4]oxazino[4′,3′:1,2]imidazo[4,5-c]quinolin-6-amine], the figure is 261 to 262 °C; as for `C#CCOc1ccc2nc(N)c3nc4n(c3c2c1)[C@@H](C)COC4` [Example 51, (11S)-11-Methyl-2-(prop-2-ynyloxy)-10,11-dihydro-8H-[1,4]oxazino[4′,3′:1,2]imidazo[4,5-c]quinolin-6-amine], 184 to 186 °C; as for `Cc1nc(COc2ccc3nc(N)c4nc5n(c4c3c2)[C@@H](C)COC5)cs1` [Example 52, (11S)-11-Methyl-2-[(2-methyl-1,3-thiazol-4-yl)methoxy]-10,11-dihydro-8H-[1,4]oxazino[4′,3′:1,2]imidazo[4,5-c]quinolin-6-amine], 105 to 107 °C.
As for `C[C@H]1COCc2nc3c(N)nc4ccc(OC(=O)N5CCCC5)cc4c3n21` [Example 53, (11S)-6-Amino-11-methyl-10,11-dihydro-8H-[1,4]oxazino[4′,3′:1,2]imidazo[4,5-c]quinolin-2-ylpyrrolidine-1-carboxylate], the figure is 218 to 219 °C.
With `C[C@H]1COCc2nc3c(N)nc4ccc(OCc5cscn5)cc4c3n21` [Example 54, (11S)-11-Methyl-2-(1,3-thiazol-4-ylmethoxy)-10,11-dihydro-8H-[1,4]oxazino[4′,3′:1,2]imidazo[4,5-c]quinolin-6-amine], the melting point lay in the range of 240 to 242 °C.
